Experimental data reported in PubChem BioAssay AID1963825 (Molecular Pharmacology Branch, DTP, NCI, 2024).

Test: Anticancer human tumor 997537-175-T-J1-PDC patient-derived colon adenocarcinoma cell line growth inhibition [POLQ]
Settings: 997537-175-T-J1-PDC complex spheroid viability, combination with POLQ inhibitors; for IC50: curve of first compound; for viability, T/C: stronger effect = lower value
In short: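 Three-cell-type spheroids modelling solid tumor plus stroma served as the readout system; POL inhibitors were tested individually and in combination, concentration ranges set by clinical Cmax where known.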
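Note: luminescence signal used as a surrogate for viable cells; spheroids exposed to drugs for seven days before readout.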

C#Cc1c(F)ccc2cc(O)cc(-c3ncc4c(N5CC6CCC(C5)N6)nc(OCC56CCCN5CC(F)C6)nc4c3F)c12 (configuration not stated) + COC1C(OC(N)=O)C(O)C(Oc2ccc3c(O)c(NC(=O)c4ccc(O)c(CC=C(C)C)c4)c(=O)oc3c2C)OC1(C)C
IC50 (second compound 0.0316 µM): > 10 µM
IC50 (second compound 0.1 µM): > 10 µM
IC50 (second compound 0.316 µM): > 10 µM
IC50 (second compound 1 µM): > 10 µM
IC50 (second compound 3.16 µM): > 10 µM
IC50 (second compound 10 µM): > 10 µM
viability, T/C (second compound 0.0316 µM, first compound 0.0316 µM): 98.8%
viability, T/C (second compound 0.0316 µM, first compound 0.1 µM): 111%
viability, T/C (second compound 0.0316 µM, first compound 0.316 µM): 103%
viability, T/C (second compound 0.0316 µM, first compound 1 µM): 108%
viability, T/C (second compound 0.0316 µM, first compound 3.16 µM): 112%
viability, T/C (second compound 0.0316 µM, first compound 10 µM): 107%
viability, T/C (second compound 0.1 µM, first compound 0.0316 µM): 119%
viability, T/C (second compound 0.1 µM, first compound 0.1 µM): 104%
viability, T/C (second compound 0.1 µM, first compound 0.316 µM): 105%
viability, T/C (second compound 0.1 µM, first compound 1 µM): 99%
viability, T/C (second compound 0.1 µM, first compound 3.16 µM): 123%
viability, T/C (second compound 0.1 µM, first compound 10 µM): 103%
viability, T/C (second compound 0.316 µM, first compound 0.0316 µM): 108%
viability, T/C (second compound 0.316 µM, first compound 0.1 µM): 116%
viability, T/C (second compound 0.316 µM, first compound 0.316 µM): 97.9%
viability, T/C (second compound 0.316 µM, first compound 1 µM): 104%
viability, T/C (second compound 0.316 µM, first compound 3.16 µM): 101%
viability, T/C (second compound 0.316 µM, first compound 10 µM): 98.4%
viability, T/C (second compound 1 µM, first compound 0.0316 µM): 107%
viability, T/C (second compound 1 µM, first compound 0.1 µM): 121%
viability, T/C (second compound 1 µM, first compound 0.316 µM): 94.9%
viability, T/C (second compound 1 µM, first compound 1 µM): 95.9%
viability, T/C (second compound 1 µM, first compound 3.16 µM): 111%
viability, T/C (second compound 1 µM, first compound 10 µM): 97.9%
viability, T/C (second compound 3.16 µM, first compound 0.0316 µM): 108%
viability, T/C (second compound 3.16 µM, first compound 0.1 µM): 112%
viability, T/C (second compound 3.16 µM, first compound 0.316 µM): 84.1%
viability, T/C (second compound 3.16 µM, first compound 1 µM): 104%
viability, T/C (second compound 3.16 µM, first compound 3.16 µM): 119%
viability, T/C (second compound 3.16 µM, first compound 10 µM): 95.8%
viability, T/C (second compound 10 µM, first compound 0.0316 µM): 101%
viability, T/C (second compound 10 µM, first compound 0.1 µM): 108%
viability, T/C (second compound 10 µM, first compound 0.316 µM): 109%
viability, T/C (second compound 10 µM, first compound 1 µM): 106%
viability, T/C (second compound 10 µM, first compound 3.16 µM): 110%
viability, T/C (second compound 10 µM, first compound 10 µM): 97.1%
